The source of these data is article PMC9638991, “Designed High-Redox Potential Laccases Exhibit High Functional Diversity” (ACS Catalysis, 2022).

Common to all, as to assay: colorimetric oxidation kinetics, purified enzyme
Holding throughout (format): biochemical

Assay [1] deals with T1, Th3 (Trametes hirsuta, UniProt B2L9C1, N227H/F478W, form not given).
T1 construct: gene Lac; secreted from S. cerevisiae (pJRoC30), purified fraction, about 56 kDa; wild type not expressible
To be noted: optimal pH; O2 as co-substrate.

Another assay has as its target T2, OB-1 (basidiomycete PM1, UniProt Q12571).
T2 construct: S. cerevisiae expression, purified
To be noted: optimal pH; O2 as co-substrate.

Assay [2] addresses T3, Th3 (Trametes hirsuta, UniProt B2L9C1, N227E/S448D, form not given).
T3 construct: gene Lac; secreted from S. cerevisiae (pJRoC30), purified fraction, about 56 kDa; wild type not expressible
As to conditions: optimal pH, O2 as co-substrate.

In assay [3] the target is T4, Th3 (Trametes hirsuta, UniProt B2L9C1).
T4 construct: gene Lac; secreted from S. cerevisiae (pJRoC30), purified fraction, about 56 kDa; wild type not expressible
T4 sequence (B2L9C1 entry or part of it): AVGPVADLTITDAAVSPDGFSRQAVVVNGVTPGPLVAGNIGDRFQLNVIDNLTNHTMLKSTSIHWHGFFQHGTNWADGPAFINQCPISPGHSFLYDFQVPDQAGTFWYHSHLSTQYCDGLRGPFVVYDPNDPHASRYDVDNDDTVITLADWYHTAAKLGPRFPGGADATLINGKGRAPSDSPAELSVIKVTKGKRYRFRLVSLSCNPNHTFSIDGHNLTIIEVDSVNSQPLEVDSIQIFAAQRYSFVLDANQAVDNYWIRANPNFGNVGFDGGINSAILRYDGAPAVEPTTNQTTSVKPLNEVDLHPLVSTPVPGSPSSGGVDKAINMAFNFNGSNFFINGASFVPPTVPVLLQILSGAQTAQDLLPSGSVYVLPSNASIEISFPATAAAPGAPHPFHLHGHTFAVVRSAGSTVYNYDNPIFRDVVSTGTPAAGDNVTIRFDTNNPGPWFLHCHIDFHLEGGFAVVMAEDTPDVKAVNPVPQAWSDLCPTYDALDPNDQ
To be noted: optimal pH 4, O2 as co-substrate.

Assay [4] concerns the target T5, Th3 (Trametes hirsuta, UniProt B2L9C1, F286M/A414S, form not given).
T5 construct: gene Lac
As to conditions: optimal pH 5; O2 as co-substrate.

Where [5] appears, read: text prints 'for Th3.7' inside a sentence on Th3.10 (apparent misprint, check Table S4).

A word on the Km: it is the substrate concentration at which the rate is half of its maximum.

T2 sequence (Q12571 entry or part of it): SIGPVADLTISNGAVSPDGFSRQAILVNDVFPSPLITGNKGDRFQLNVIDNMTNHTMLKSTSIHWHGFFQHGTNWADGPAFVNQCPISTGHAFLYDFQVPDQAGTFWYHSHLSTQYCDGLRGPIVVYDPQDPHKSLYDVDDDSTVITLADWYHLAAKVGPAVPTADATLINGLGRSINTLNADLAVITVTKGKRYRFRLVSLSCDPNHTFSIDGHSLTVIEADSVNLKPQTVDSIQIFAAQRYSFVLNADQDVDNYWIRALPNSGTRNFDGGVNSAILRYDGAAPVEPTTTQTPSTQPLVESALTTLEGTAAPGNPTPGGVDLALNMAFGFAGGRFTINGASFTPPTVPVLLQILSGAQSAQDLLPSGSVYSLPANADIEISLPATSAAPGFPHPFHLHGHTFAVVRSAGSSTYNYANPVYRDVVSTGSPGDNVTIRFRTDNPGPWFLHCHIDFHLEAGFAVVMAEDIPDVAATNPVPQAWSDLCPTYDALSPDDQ
T3 sequence (B2L9C1 entry or part of it N227E/S448D, form open): as the sequence (B2L9C1 entry or part of it) above, with N206E, S427D counted along it
T1 sequence (B2L9C1 entry or part of it N227H/F478W, form open): as the sequence (B2L9C1 entry or part of it) above, with N206H, F457W counted along it
T5 sequence (B2L9C1 entry or part of it F286M/A414S, form open): as the sequence (B2L9C1 entry or part of it) above, with F265M, A393S counted along it

Consider `COc1cccc(OC)c1O` [DMP, 2,6-dimethoxyphenol], for which the Km on Th3 [1] was 44 µM; on OB-1, 165 ± 2 µM; on Th3 [2] (setting [5]), 17.1 µM; on Th3 [3] (purified fraction, values estimates), 1280 µM.

With `COc1ccccc1O` [GUA, guaiacol], the Km at Th3 [4] is 555 ± 85 µM; at OB-1, 1070 ± 30 µM; at Th3 [2], 667 ± 36 µM; at Th3 [3], 1790 ± 160 µM.

Regarding `COc1cc(/C=C/C(=O)O)cc(OC)c1O` [SA, sinapic acid], the Km on Th3 [1] amounted to 185 µM; on OB-1, 81 ± 15 µM; on Th3 [2] (setting [5]), 150 µM.
